Laboratory results taken from ChEMBL document CHEMBL1671626, “In vitro profiling of ceftaroline against a collection of recent bacterial clinical isolates from across the United States” (2008).
In brackets after ≈: the same amount, converted by molar mass.

Experiments:
Format in all cases: functional
Staphylococcus aureus [1] = experiment: Antibacterial activity against methicillin-susceptible Staphylococcus aureus by CLSI M7-A7 broth microdilution method
Staphylococcus aureus [2] = experiment: Antibacterial activity against methicillin-susceptible Staphylococcus aureus assessed as susceptible isolates by CLSI M7-A7 broth microdilution method
Staphylococcus aureus [3] = experiment: Antibacterial activity against methicillin-susceptible Staphylococcus aureus assessed as resistant isolates by CLSI M7-A7 broth microdilution method
Staphylococcus aureus [4] = experiment: Antibacterial activity against methicillin-resistant Staphylococcus aureus by CLSI M7-A7 broth microdilution method
Staphylococcus aureus [5] = experiment: Antibacterial activity against methicillin-resistant Staphylococcus aureus assessed as susceptible isolates by CLSI M7-A7 broth microdilution method
Staphylococcus aureus [6] = experiment: Antibacterial activity against methicillin-resistant Staphylococcus aureus assessed as resistant isolates by CLSI M7-A7 broth microdilution method
Staphylococcus aureus [7] = experiment: Antibacterial activity against coagulase-negative and oxacillin-susceptible Staphylococcus aureus by CLSI M7-A7 broth microdilution method
Staphylococcus aureus [8] = experiment: Antibacterial activity against coagulase-negative and oxacillin-susceptible Staphylococcus aureus assessed as susceptible isolates by CLSI M7-A7 broth microdilution method
Staphylococcus aureus [9] = experiment: Antibacterial activity against coagulase-negative and oxacillin-susceptible Staphylococcus aureus assessed as resistant isolates by CLSI M7-A7 broth microdilution method
Staphylococcus aureus [10] = experiment: Antibacterial activity against coagulase-negative and oxacillin-resistant Staphylococcus aureus by CLSI M7-A7 broth microdilution method
Staphylococcus aureus [11] = experiment: Antibacterial activity against coagulase-negative and oxacillin-resistant Staphylococcus aureus assessed as susceptible isolates by CLSI M7-A7 broth microdilution method
Staphylococcus aureus [12] = experiment: Antibacterial activity against coagulase-negative and oxacillin-resistant Staphylococcus aureus assessed as resistant isolates by CLSI M7-A7 broth microdilution method
Enterococcus faecalis [13] = experiment: Antibacterial activity against vancomycin-susceptible Enterococcus faecalis by CLSI M7-A7 broth microdilution method
Enterococcus faecalis [14] = experiment: Antibacterial activity against vancomycin-resistant Enterococcus faecalis by CLSI M7-A7 broth microdilution method
Enterococcus faecium = experiment: Antibacterial activity against vancomycin-resistant Enterococcus faecium by CLSI M7-A7 broth microdilution method
Moraxella catarrhalis = experiment: Antibacterial activity against beta lactamase-positive Moraxella catarrhalis by CLSI M7-A7 broth microdilution method

SMILES: Cc1onc(-c2ccccc2)c1C(=O)N[C@@H]1C(=O)N2[C@@H]1SC(C)(C)[C@@H]2C(=O)O [OXACILLIN]
- MIC50 (Staphylococcus aureus [1]): 0.25 µg/mL (≈ 0.623 µM)
- MIC90 (Staphylococcus aureus [1]): 0.5 µg/mL (≈ 1.25 µM)
- Activity (Staphylococcus aureus [2]): 100%
- Activity (Staphylococcus aureus [3]): 0%
- MIC50 (Staphylococcus aureus [4]): > 8 µg/mL
- MIC90 (Staphylococcus aureus [4]): > 8 µg/mL
- Activity (Staphylococcus aureus [5]): 0%
- Activity (Staphylococcus aureus [6]): 100%
- MIC50 (Staphylococcus aureus [7]): 0.12 µg/mL (≈ 0.299 µM)
- MIC90 (Staphylococcus aureus [7]): 0.25 µg/mL (≈ 0.623 µM)
- Activity (Staphylococcus aureus [8]): 100%
- Activity (Staphylococcus aureus [9]): 0%
- MIC50 (Staphylococcus aureus [10]): > 8 µg/mL
- MIC90 (Staphylococcus aureus [10]): > 8 µg/mL
- Activity (Staphylococcus aureus [11]): 0%
- Activity (Staphylococcus aureus [12]): 100%
- MIC50 (Enterococcus faecalis [13]): > 8 µg/mL
- MIC90 (Enterococcus faecalis [13]): > 8 µg/mL
- MIC50 (Enterococcus faecalis [14]): > 8 µg/mL
- MIC90 (Enterococcus faecalis [14]): > 8 µg/mL
- MIC (Enterococcus faecium): > 8 µg/mL
- MIC50 (Enterococcus faecium): > 8 µg/mL
- MIC90 (Enterococcus faecium): > 8 µg/mL
- MIC50 (Moraxella catarrhalis): 4 µg/mL (≈ 9.96 µM)
- MIC90 (Moraxella catarrhalis): > 8 µg/mL
